Assays:
[1] = target: T1, 5-Lipoxygenase from RBL-1 20,000 xg Supernatant (Rattus norvegicus, UniProt P12527); assay: In vitro inhibition of 5-lipoxygenase from RBL-1 20,000 xg supernatant; format: biochemical; conditions: radiolabeled arachidonic acid
T1 construct: supermatant from 1.5 million homogenized RBL-1 cells; endogenous in cells; host or cells: RBL-1 cells, 20,000 x g supernatant of homogenate
T1 sequence (P12527 1-673): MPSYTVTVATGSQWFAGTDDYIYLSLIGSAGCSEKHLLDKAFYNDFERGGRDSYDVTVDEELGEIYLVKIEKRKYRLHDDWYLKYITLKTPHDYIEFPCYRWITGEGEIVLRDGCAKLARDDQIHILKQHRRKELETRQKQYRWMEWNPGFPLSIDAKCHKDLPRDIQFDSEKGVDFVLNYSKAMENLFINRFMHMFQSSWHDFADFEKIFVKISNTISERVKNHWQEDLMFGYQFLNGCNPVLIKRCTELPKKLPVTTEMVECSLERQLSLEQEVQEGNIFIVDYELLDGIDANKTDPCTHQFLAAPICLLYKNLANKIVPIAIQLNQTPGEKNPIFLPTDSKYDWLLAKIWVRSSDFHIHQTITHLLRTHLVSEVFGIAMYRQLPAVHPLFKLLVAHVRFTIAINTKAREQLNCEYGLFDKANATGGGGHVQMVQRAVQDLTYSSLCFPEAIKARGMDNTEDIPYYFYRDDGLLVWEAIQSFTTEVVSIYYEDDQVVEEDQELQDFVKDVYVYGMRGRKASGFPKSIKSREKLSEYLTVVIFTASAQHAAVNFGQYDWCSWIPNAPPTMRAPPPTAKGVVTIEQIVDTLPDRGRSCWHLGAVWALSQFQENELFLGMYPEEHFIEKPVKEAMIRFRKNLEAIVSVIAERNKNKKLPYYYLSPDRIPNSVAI
Protocol: Assays to determine 5-lipoxygenase inhibitory activity were performed in […] incubations containing the 20,000xg supermatant from 1.5 million homogenized RBL-1 cells and various concentrations of the test compound. Reactions were initiated by addition of radiolabeled arachidonic acid and terminated by acidification and ether extraction. Reaction products were separated from nonconverted substrate by thin layer chromatography and measured by liquid scintillation spectroscopy. All incubations are performed in triplicate. Inhibition of 5-lipoxygenase activity was calculated as the ratio of the amount of product formed in the presence and absence of inhibitor. […] (Dyer, R.D.; Haviv, F.; Hanel, A. M.; Bornemier, D. A.; Carter, G. W. Fed. Proc., Fed. Am. Soc. Exp. Biol. 1984, 43, 1462A).

leukotriene biosynthesis = assay: In vivo inhibition of leukotriene biosynthesis, rat peritoneal anaphylaxis model; conditions: 1 h, 200 μmol/kg oral dose, gavage one hour prior to antigen challenge, read-out: Percent Inhibition
Protocol: Inhibition of the biosynthesis of leukotrienes in vivo after oral administration of compound was determined using a rat peritoneal anaphylaxis model in a similar manner as that described by Young and coworkers (Young, P. R.; Dyer, R. D.; Carter, G. W. Fed. Proc., Fed. Am. Soc. Exp. Biol. 1985, 44, 1185). In this model rats were injected intraperitoneally (ip) with rabbit antibody to bovine serum albumin (BSA) and three hours later injected ip with BSA to induce an antgen-antibody response. Rats were sacrificed 15 minutes after this challenge and the peritoneal fluids were collected and analyzed for leukotriene levels. Test compounds were administered by gavage one hour prior to the antigen challenge. Percent inhibition values were determined by comparing the treatment group to the mean of the control group.

5-lipoxygenase = conditions: cited from earlier work

Row | IC50 [1] [nM] | SMILES | inhibition in vivo at 200 µmol/kg (leukotriene biosynthesis) [%] | 5-lipoxygenase inhibition (5-lipoxygenase)
1 | 530 | Cc1ccc(C(C)N(O)C(N)=O)s1 (stereo not drawn) [Example 12, N-Hydroxy-N-1-(5-methylthien-2-yl)ethyl urea] | 94 | 
2 | 3500 | CC(c1ccsc1)N(O)C(N)=O (stereo not drawn) [Example 43, N-Hydroxy-N-1-(thien-3-yl)ethyl urea] | 66 | 
3 | 4900 | NC(=O)N(O)Cc1ccsc1 [Example 44, N-Hydroxy-N-(thien-3-yl)methyl urea] | 87 | 
4 | 6800 | NC(=O)N(O)Cc1cccs1 [Example 45, N-hydroxy-N-(thien-2-yl)methyl urea] | 97 | 
5 | 3700 | CC(c1cccs1)N(O)C(N)=O (stereo not drawn) [Example 47, N-hydroxy-N-(1-thien-2-yl)ethyl urea] | 94 | 
6 | 6700 | CNC(=O)N(O)Cc1cccs1 [Example 50, N-hydroxy-N-(thien-2-yl)methyl-N'-methyl urea] | 90 | 
7 | 200 | Cc1ccc(CN(O)C(N)=O)s1 [Example 51, N-hydroxy-N-(5-methylthien-2-yl)methyl urea] | 94 | 
8 | 1900 | NC(=O)N(O)CC=Cc1ccsc1 [Example 68, N-hydroxy-N-(3-(1-thien-3-yl)propenyl) urea] | 93 | 
9 | 200 | CC(c1ccc(Br)cc1)N(O)C(N)=O (stereo not drawn) [Example 97, N-Hydroxy-N-1-(4-bromophenyl)ethylurea] | 94 | 
10 | 800 | NC(=O)N(O)Cc1ccc(Br)cc1 [Example 100, N-Hydroxy-N-4-bromobenzylurea] | 95 | 
11 | 300 | Cc1ccc(C(C)N(O)C(N)=O)cc1 (stereo not drawn) [Example 113, N-Hydroxy-N-(1-(4-methylphenyl)ethyl) urea] | 94 | 
12 | 300 | NC(=O)N(O)Cc1sccc1Sc1ccc(F)cc1 [Example 143, N-hydroxy-N-[3-(4-fluorophenylthio)thien-2-yl]methyl urea] |  | 
13 | 200 | CC(C)(C)c1ccc(Sc2ccsc2CN(O)C(N)=O)cc1 [Example 144, N-hydroxy-N-[3-(4-tertbutylphenylthio)thien-2-yl]methyl urea] |  | 
14 | 1500 | NC(=O)N(O)Cc1sccc1Sc1ccccn1 [Example 145, N-hydroxy-N-[3-(2-pyridylthio)thien-2-yl]methyl urea] |  | 
15 | 700 | NC(=O)N(O)Cc1sccc1SCc1ccco1 [Example 146, N-hydroxy-N-[3-(2-furfurylmethylthio)thien-2-yl]methyl urea] |  | 
16 | 3700 | CC(C)(C)Sc1ccsc1CN(O)C(N)=O [Example 147, N-hydroxy-N-[3-(tertbutylthio)thien-2-yl]methyl urea] |  | 
17 | 300 | CC(C)(C)Sc1ccc(CN(O)C(N)=O)s1 [Example 148, N-hydroxy-N-[5-(tertbutylthio)thien-2-yl]methyl urea] |  | 
18 | 800 | CC(c1ccc(SC(C)(C)C)s1)N(O)C(N)=O (stereo not drawn) [Example 149, N-hydroxy-N-[1-(5-{terbutylthio}thien-2-yl)ethyl]urea] |  | 
19 | 200 | CC(C)(C)Sc1ccc(/C=C/CN(O)C(N)=O)s1 [Example 154, N-hydroxy-N-3-[5-(tertbutylthio)thien-2-yl]propenyl urea] |  | 
20 | 1000 | NC(=O)N(O)Cc1sccc1Oc1ccccc1 [Example 156, N-hydroxy-N-[3-(phenoxy)thien-2-yl]methyl urea] |  | 
21 | 500 | NC(=O)N(O)Cc1cc(Oc2ccccc2)cs1 [Example 157, N-hydroxy-N-[4-(phenoxy)thien-2-yl]methyl urea] |  | 

More lines, now with the values behind:

Row | SMILES | IC50 [1] [nM] | inhibition in vivo at 200 µmol/kg (leukotriene biosynthesis) [%] | 5-lipoxygenase inhibition (5-lipoxygenase)
22 | CC(c1ccc(OCc2ccccc2)cc1)N(O)C(N)=O (stereo not drawn) [Example 1, N-hydroxy-N-(1(4-phenylmethoxyphenyl)ethyl)urea] | 430 | 58 | 
23 | CC(c1ccc(OCc2ccccc2)cc1)N(O)C(=O)NO (stereo not drawn) [Example 4] | 500 | 63 | 
24 | NC(=O)N(O)Cc1ccc(OCc2ccccc2)cc1 [Example 5, N-hydroxy-N-(4-phenylmethoxyphenylmethyl) urea] | 610 | 74 | 
25 | COc1cc(C(C)N(O)C(N)=O)cc(OC)c1OCc1ccccc1 (stereo not drawn) [Example 7, N-hydroxy-N-(1-(4-phenylmethoxy-3,5-dimethoxyphenyl)ethyl) urea] | 1400 | 88 | 
26 | CC(c1ccc2ccccc2c1)N(O)C(N)=O (stereo not drawn) [Example 9, N-hydroxy-N-(1-(2-naphthyl)ethyl) urea] |  | 69 | 
27 | Cc1cc(C(C)N(O)C(N)=O)c(C)s1 (stereo not drawn) [Example 42, N-Hydroxy-N-1-(2,5-dimethylthien-3-yl)ethyl urea] | 1500 | 64 | 
28 | Cc1ccsc1CN(O)C(N)=O [Example 49, N-hydroxy-N-(3-methylthien-2-yl)methyl urea] |  | 94 | 
29 | NC(=O)N(O)Cc1ccc(-c2ccccn2)s1 [Example 55, N-hydroxy-N-(1-(5-(pyrid-2-yl)thien-2-yl)methyl) urea] | 2100 | 71 | 
30 | CC(c1ccc(-c2ccccc2)s1)N(O)C(N)=O (stereo not drawn) [Example 56, N-hydroxy-N-(1-(5-phenylthien-2-yl)ethyl)urea] | 400 | 89 | 
31 | CC(c1ccc(Br)cc1)N(O)C(=O)NCCO (stereo not drawn) [Example 99, N-Hydroxy-N-1-(4-bromophenyl)ethyl-N'-(2-hydroxyethyl)-urea] | 300 | 84 | 
32 | CNC(=O)N(O)Cc1ccc(Br)cc1 [Example 101, N-Hydroxy-N-4-bromobenzyl-N'-methyl urea] | 300 | 93 | 
33 | CCC(c1ccc(Br)cc1)N(O)C(N)=O (stereo not drawn) [Example 102, N-Hydroxy-N-(1-(4-bromophenyl)propyl) urea] |  | 85 | 
34 | CCC(c1ccc(Br)cc1)N(O)C(=O)NC (stereo not drawn) [Example 103, N-Hydroxy-N-(1-(4-bromophenyl)propyl)-N'-methylurea] |  | 88 | 
35 | CC(c1ccc(Cl)cc1)N(O)C(N)=O (stereo not drawn) [Example 107, N-Hydroxy-N-(1-(4-chlorophenyl)ethyl) urea] | 600 | 99 | 
36 | CC(c1ccc(F)cc1)N(O)C(N)=O (stereo not drawn) [Example 109, N-Hydroxy-N-(1-(4-fluorophenyl)ethyl) urea] | 1800 | 98 | 
37 | CC(c1ccc(C(F)(F)F)cc1)N(O)C(N)=O (stereo not drawn) [Example 111, N-Hydroxy-N-(1-(4-trifluoromethylphenyl)ethyl) urea] |  | 97 | 
38 | CC(c1ccc(-c2ccccc2)cc1)N(O)C(N)=O (stereo not drawn) [Example 120, N-Hydroxy-N-(1-(4-biphenyl)ethyl) urea] |  | 77 | 
39 | NC(=O)N(O)Cc1ccc(Oc2ccccc2)s1 [Example 155, N-hydroxy-N-[5-(phenoxy)thien-2-yl]methyl urea] | 700 |  | 
40 | NC(=O)N(O)Cc1cc(Oc2ccc(Cl)cc2)cs1 [Example 158, N-hydroxy-N-[4-(4-chlorophenoxy)thien-2-yl]methyl urea] | 400 |  | 
41 | O=C(O)c1cc(/N=N/c2ccc(S(=O)(=O)Nc3ccccn3)cc2)ccc1O [sulfasalazine] |  |  | weak 5-lipoxygenase inhibitor
